Results from ChEMBL document CHEMBL5512637, “Development of Membrane-Targeting Fluorescent 2-Phenyl-1H-phenanthro[9,10-d]imidazole-Antimicrobial Peptide Mimic Conjugates against Methicillin-Resistant Staphylococcus aureus” (J Med Chem, 2024).
Calls of active or inactive are those of the source. The rule behind the calls is not given here.

Legend:
Staphylococcus aureus [1] = assay: Bactericidal activity against methicillin-resistant Staphylococcus aureus clinical isolate M-4 at 4 to 8 times MIC by time kill assay; assay type: functional, organism-based; conditions: TDE = time-dependent effect
[2] = Toxicity in KM mouse assessed as red swollen appearance of skin at administration site at 5 to 20 mg/kg, sc measured for 24 hrs; assay type: organism-based; conditions: in vivo, dose 5-20 mg/kg
Staphylococcus aureus [3] = assay: Bactericidal activity against methicillin-resistant Staphylococcus aureus clinical isolate M-4 at 8 times MIC incubated for 4 hrs by time kill assay relative to control; assay type: functional
Staphylococcus aureus [4] = assay: Bactericidal activity against methicillin-resistant Staphylococcus aureus clinical isolate M-4 at 4 times MIC incubated for 6 hrs by time kill assay relative to control; assay type: functional
[5] = Toxicity in KM mouse assessed as histological abnormality in liver at 20 mg/kg, sc measured after 24 hrs by H and E staining based analysis; assay type: organism-based; conditions: in vivo
[6] = Toxicity in KM mouse infected with methicillin-resistant Staphylococcus aureus clinical isolate M-4 assessed as histopathological abnormality in spleen at 5 to 10 mg/kg, sc measured after 24 hrs by H and E staining based analysis; assay type: organism-based; conditions: in vivo, dose 5-10 mg/kg
Staphylococcus aureus [7] = assay: Disruption of cell membrane in methicillin-resistant Staphylococcus aureus clinical isolate M-4 assessed as fold increase in fluorescence intensity at 32 ug/ml measured after 20 mins by DiSC3(5) dye based analysis relative to control; assay type: functional; conditions: dose 32 µg/ml
Staphylococcus aureus [8] = assay: Antibacterial activity against Staphylococcus aureus ATCC 29213 incubated for 16 to 18 hrs CLSI based by microbroth dilution assay; assay type: functional; conditions: time 16-18 hrs
Staphylococcus aureus [9] = assay: Disruption of cell membrane in methicillin-resistant Staphylococcus aureus clinical isolate M-4 assessed as increase in red fluorescence at 32 ug/ml incubated for 2 hrs by SYTO9/PI staining based flow cytometry relative to control; assay type: functional; conditions: dose 32 µg/ml
Staphylococcus aureus [10] = assay: Disruption of cell membrane in methicillin-resistant Staphylococcus aureus clinical isolate M-4 assessed as DNA leakage at 1 to 8 times MIC incubated for 4 hrs by microspectrophotometry; assay type: functional, organism-based
Staphylococcus aureus [11] = assay: Antibacterial activity against methicillin-resistant Staphylococcus aureus clinical isolate M-8 incubated for 16 to 18 hrs CLSI based by microbroth dilution assay; assay type: functional; conditions: time 16-18 hrs
[12] = Toxicity in KM mouse assessed as animal abnormality at 5 to 80 mg/kg, sc measured for 24 hrs; assay type: organism-based; conditions: in vivo, dose 5-80 mg/kg
[13] = Binding affinity to phosphatidylglycerol (unknown origin) assessed as dissociation constant by ITC analysis
[14] = Toxicity in KM mouse assessed as change in hemoglobin level at 20 mg/kg, sc measured after 24 hrs; assay type: organism-based; conditions: in vivo
[15] = Selectivity index, ratio of HC50 for sheep erythrocytes to MIC for Staphylococcus aureus ATCC 29213; assay type: toxicity; conditions: read-out: Selectivity Index
[16] = Toxicity in KM mouse assessed as change in mental health at 5 to 80 mg/kg, sc measured for 24 hrs; assay type: organism-based; conditions: in vivo, dose 5-80 mg/kg
Staphylococcus aureus [17] = assay: Antibacterial activity against methicillin-resistant Staphylococcus aureus clinical isolate M-4 infected in KM mouse assessed as decrease in erythema in subcutaneous tissue at 5 to 10 mg/kg, sc measured after 24 hrs by H and E staining based analysis; assay type: functional, organism-based; conditions: dose 5-10 mg/kg
Staphylococcus aureus [18] = assay: Antibacterial activity against methicillin-resistant Staphylococcus aureus clinical isolate M-1 incubated for 16 to 18 hrs CLSI based by microbroth dilution assay; assay type: functional; conditions: time 16-18 hrs
Staphylococcus aureus [19] = assay: Disruption of cell membrane in methicillin-resistant Staphylococcus aureus clinical isolate M-4 assessed as wrinkled cell membrane at 8 times MIC incubated for 1 hr by SEM analysis; assay type: functional, organism-based
[20] = Toxicity in KM mouse infected with methicillin-resistant Staphylococcus aureus clinical isolate M-4 assessed as histopathological abnormality in lungs at 5 to 10 mg/kg, sc measured after 24 hrs by H and E staining based analysis; assay type: organism-based; conditions: in vivo, dose 5-10 mg/kg
Staphylococcus aureus [21] = assay: Bactericidal activity against Staphylococcus aureus ATCC 29213 assessed as fold increase in fluorescence intensity at MIC incubated for 180 mins relative to control; assay type: functional; conditions: 3 h
Staphylococcus aureus [22] = assay: Antibacterial activity against methicillin-resistant Staphylococcus aureus clinical isolate M-4 infected in KM mouse assessed as decrease in abscesses in subcutaneous tissue at 5 to 10 mg/kg, sc measured after 24 hrs by H and E staining based analysis; assay type: functional, organism-based; conditions: dose 5-10 mg/kg
Staphylococcus aureus [23] = assay: Antibacterial activity against methicillin-resistant Staphylococcus aureus clinical isolate M-4 upto 128 ug/ml incubated for 16 to 18 hrs in presence of phosphatidylglycerol by broth dilution method; assay type: functional, organism-based; conditions: dose <= 128.0 µg/ml, time 16-18 hrs
Staphylococcus aureus [24] = assay: Antibacterial activity against methicillin-resistant Staphylococcus aureus clinical isolate M-4 upto 128 ug/ml incubated for 16 to 18 hrs in presence of cardiolipin by broth dilution method; assay type: functional, organism-based; conditions: dose <= 128.0 µg/ml, time 16-18 hrs
[25] = Hemolytic activity in sheep erythrocytes incubated for 1 hr by absorbance based assay; assay type: toxicity, cell-based, Ovis aries, Erythrocyte
[26] = Toxicity in KM mouse assessed as survival rate at 5 to 80 mg/kg, sc measured for 24 hrs; assay type: organism-based; conditions: in vivo, dose 5-80 mg/kg
[27] = Toxicity in KM mouse assessed as red swollen appearance of skin at administration site at 40 to 80 mg/kg, sc measured for 24 hrs; assay type: organism-based; conditions: in vivo, dose 40-80 mg/kg
[28] = Toxicity in KM mouse infected with methicillin-resistant Staphylococcus aureus clinical isolate M-4 assessed as histopathological abnormality in liver at 5 to 10 mg/kg, sc measured after 24 hrs by H and E staining based analysis; assay type: organism-based; conditions: in vivo, dose 5-10 mg/kg
Staphylococcus aureus [29] = assay: Antibacterial activity against Staphylococcus aureus ATCC 29213 at 1 ug/ml in absence of exogenous DNA; assay type: functional, organism-based; conditions: dose 1.0 µg/ml
[30] = Toxicity in KM mouse assessed as change in urea level at 20 mg/kg, sc measured after 24 hrs; assay type: organism-based; conditions: in vivo
Staphylococcus aureus [31] = assay: Antibacterial activity against methicillin-resistant Staphylococcus aureus clinical isolate M-4 infected in KM mouse assessed as survival rate of bacteria at 5 mg/kg, sc measured after 24 hrs relative to control; assay type: functional
Staphylococcus aureus [32] = assay: Disruption of cell membrane in methicillin-resistant Staphylococcus aureus clinical isolate M-4 assessed as decrease in blue fluorescence at 4 ug/ml incubated for 4 hrs by DAPI/PI staining based laser confocal microscopy; assay type: functional, organism-based; conditions: dose 4.0 µg/ml
Staphylococcus aureus [33] = assay: Antibacterial activity against methicillin-resistant Staphylococcus aureus clinical isolate M-6 incubated for 16 to 18 hrs CLSI based by microbroth dilution assay; assay type: functional; conditions: time 16-18 hrs
Staphylococcus aureus [34] = assay: Disruption of cell membrane in methicillin-resistant Staphylococcus aureus clinical isolate M-4 assessed as increase in intracellular ROS level incubated for 1 hr by DCFH-DA dye based analysis; assay type: functional, organism-based; conditions: dose 1-32 µg/ml
Staphylococcus aureus [35] = assay: Disruption of cell membrane in methicillin-resistant Staphylococcus aureus clinical isolate M-4 assessed as protein leakage at 1 to 8 times MIC incubated for 4 hrs by BCA assay; assay type: functional, organism-based
Staphylococcus aureus [36] = assay: Disruption of cell membrane in methicillin-resistant Staphylococcus aureus clinical isolate M-4 assessed as increase in fluorescence intensity measured for 30 mins by DiSC3(5) dye based analysis; assay type: functional, organism-based; conditions: dose 8-32 µg/ml
Escherichia coli = assay: Antibacterial activity against Escherichia coli ATCC 25922 incubated for 16 to 18 hrs CLSI based by microbroth dilution assay; assay type: functional; conditions: time 16-18 hrs
[37] = Toxicity in KM mouse assessed as change in hematocrit level at 20 mg/kg, sc measured after 24 hrs; assay type: organism-based; conditions: in vivo

With `CCCCCNC(=O)C[N+](C)(C)CCCCn1c(-c2ccc(N(C)C)cc2)nc2c3ccccc3c3ccccc3c21.[Br-]` as the compound, how does the Activity (Staphylococcus aureus [1]) read?
The Activity was “Tde”.

What about the Activity [2] of the same compound?
The Activity was “Non-Toxic”.

And the Activity (Staphylococcus aureus [3])?
The Activity was 100%.

What about the Activity (Staphylococcus aureus [4]) of the same compound?
The Activity was 100%.

And the Activity [5]?
The Activity was “Non-Toxic”.

What about the Activity [6] of the same compound?
Its Activity is “Non-Toxic”.

And the “fold change (FC)” value (Staphylococcus aureus [7])?
Its value is roughly 5.

And the MIC (Staphylococcus aureus [8])?
The MIC was 1 µg/mL.

And the Activity (Staphylococcus aureus [9])?
The Activity was 99.34%.

What about the Activity (Staphylococcus aureus [10]) of the same compound?
Its Activity is “Active”.

What about the MIC (Staphylococcus aureus [11]) of the same compound?
The MIC was 0.5 µg/mL.

What about the Activity [12] of the same compound?
Its Activity is “Non-Toxic”.

And the Kd [13]?
The Kd was 39.8 µM.

And the Activity [14]?
The Activity was “Non-Toxic”.

What about the selectivity ratio [15] of the same compound?
Its selectivity ratio is 859.

And the Activity [16]?
Its Activity is “Non-Toxic”.

And the Activity (Staphylococcus aureus [17])?
The Activity was “Active”.

What about the MIC (Staphylococcus aureus [18]) of the same compound?
The MIC was 2 µg/mL.

What about the Activity (Staphylococcus aureus [19]) of the same compound?
The Activity was “Active”.

And the Activity [20]?
The Activity was “Non-Toxic”.

What about the “fold change (FC)” value (Staphylococcus aureus [21]) of the same compound?
Its value is roughly 1.9.

What about the Activity (Staphylococcus aureus [22]) of the same compound?
The Activity was “Active”.

What about the Activity (Staphylococcus aureus [23]) of the same compound?
Its Activity is “inactive”.

What about the Activity (Staphylococcus aureus [24]) of the same compound?
Its Activity is “Active”.

And the HC50 at 1 h [25]?
The HC50 at 1 h was 859 µg/mL.

And the survival at 24 h [26]?
Its survival at 24 h is 100%.

And the Activity [27]?
The Activity was “Toxic”.

What about the Activity [28] of the same compound?
Its Activity is “Non-Toxic”.

What about the Activity (Staphylococcus aureus [29]) of the same compound?
The Activity was “Active”.

And the Activity [30]?
The Activity was “Non-Toxic”.

And the survival at 5 mg/kg (Staphylococcus aureus [31])?
Its survival at 5 mg/kg is 0.42%.

And the Activity (Staphylococcus aureus [32])?
Its Activity is “Active”.

And the MIC (Staphylococcus aureus [33])?
Its MIC is 0.5 µg/mL.

And the Activity (Staphylococcus aureus [34])?
Its Activity is “Dose-Dependent Effect”.

What about the Activity (Staphylococcus aureus [35]) of the same compound?
Its Activity is “Active”.

And the Activity (Staphylococcus aureus [36])?
Its Activity is “Dose-Dependent Effect”.

And the MIC (Escherichia coli)?
Its MIC is 32 µg/mL.

And the Activity [37]?
The Activity was “Non-Toxic”.
